One may read the pIC50 as −log10 of the IC50, conventionally taken in molar units.

The results in this text go back to patent publication US20250122191A1, “COMPOUNDS AS BCL-2 INHIBITORS” (Fochon Biosciences, Ltd, priority 2021, published 2025).

Common to all, as to type: cell-based
The test system of one test is Toledo cells. In words: Cell proliferation assay (MTS), Toledo cells. The settings on record: Homo sapiens, 72 h. Put shortly: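 Toledo cells (RPMI-1640, 10% FBS) seeded at 30000 cells/well, rested 4 h, then exposed 72 h at 37 °C, 5% CO2 to compound at nine final concentrations, 1.5–10000 nM. Viability by MTS (2 h), absorbance at 490 nm. IC50 from the concentration-response.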

The next test concerns RS4;11-BCL-2 G101V cells. Put plainly: Cell proliferation assay (MTS), RS4;11-BCL-2 G101V engineered cells. The settings on record: Homo sapiens, 120 h, read-out: RS4, 11 BCL2-G101V IC50. In a few lines:
(§1)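 Inhibition of mutant BCL-2 is inferred from reduced proliferation of RS4;11 cells stably overexpressing the mutant. Compounds are tested at 1.5–10000 nM for 120 h (G101V, F104L) or 72 h (D103E, D103Y), with MTS absorbance at 490 nm used to derive IC50.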

The test system of the next test is RS4;11-BCL-2 F104L cells. In words: Cell proliferation assay (MTS), RS4;11-BCL-2 F104L engineered cells. Conditions: Homo sapiens, 120 h, read-out: RS4, 11 BCL2-F104L IC50. In a few lines:
as §1

pIC50: −log10 of the molar value.

Turning to `COc1nc2[nH]cc(F)c2cc1Oc1cc(N2CCC3(CC2)CC(N2CCN(Cc4ccc5c(c4)OCO5)C[C@H]2c2ccccc2C(C)C)C3)ccc1C(=O)NS(=O)(=O)c1cnc(NC[C@H]2CC[C@](C)(O)CC2)c([N+](=O)[O-])c1` [Example 353, 4-(2-((R)-4-(benzo[d][1,3]dioxol-5-ylmethyl)-2-(2-isopropylphenyl)piperazin-1-yl)-7-azaspiro [3.5]nonan-7-yl)-2-((3-fluoro-6-methoxy-1H-pyrrolo[2,3-b]pyridin-5-yl)oxy)-N-((6-((((1r,4r)-4-hydroxy-4-methylcyclohexyl)methyl)amino)-5-nitropyridin-3-yl)sulfonyl)benzamide], the pIC50 in the test on Toledo cells, with RS4;11-BCL-2 G101V cells and in the test on RS4;11-BCL-2 F104L cells was 9.00 throughout.
Consider `Cc1cc(CN2CCN(C3CC4(CCN(c5ccc(C(=O)NS(=O)(=O)c6cnc(NC[C@H]7CC[C@](C)(O)CC7)c([N+](=O)[O-])c6)c(Oc6cnc7[nH]cc(F)c7c6)c5)CC4)C3)[C@H](c3ccccc3C(C)C)C2)ccn1` [Example 356, 2-((3-fluoro-1H-pyrrolo[2,3-b]pyridin-5-yl)oxy)-N-((6-((((1r,4r)-4-hydroxy-4-methylcyclohexyl)methyl)amino)-5-nitropyridin-3-yl)sulfonyl)-4-(2-((R)-2-(2-isopropylphenyl)-4-((2-methylpyridin-4-yl)methyl)piperazin-1-yl)-7-azaspiro[3.5]nonan-7-yl)benzamide], for which the negative logarithm of the IC50 (pIC50) in the test on Toledo cells was 9.00; in the test with RS4;11-BCL-2 G101V cells it was 9.00; in the test with RS4;11-BCL-2 F104L cells, 8.70.
For the compound `COc1nc2[nH]cc(F)c2cc1Oc1cc(N2CCC3(CC2)CC(N2CCN(Cc4ccnc(C)c4)C[C@H]2c2ccccc2C(C)C)C3)ccc1C(=O)NS(=O)(=O)c1cnc(NC[C@H]2CC[C@](C)(O)CC2)c([N+](=O)[O-])c1` [Example 355, 2-((3-fluoro-6-methoxy-1H-pyrrolo[2,3-b]pyridin-5-yl)oxy)-N-((6-((((1r,4r)-4-hydroxy-4-methylcyclohexyl)methyl)amino)-5-nitropyridin-3-yl)sulfonyl)-4-(2-((R)-2-(2-isopropylphenyl)-4-((2-methylpyridin-4-yl)methyl)piperazin-1-yl)-7-azaspiro[3.5]nonan-7-yl)benzamide], the pIC50 in the test with Toledo cells, with RS4;11-BCL-2 G101V cells and in the test with RS4;11-BCL-2 F104L cells was 9.00 each time.
`CC(C)c1ccccc1[C@@H]1CN(Cc2ccnc(Cl)c2)CCN1C1CC2(CCN(c3ccc(C(=O)NS(=O)(=O)c4cnc(NC[C@H]5CC[C@](C)(O)CC5)c([N+](=O)[O-])c4)c(Oc4cnc5[nH]cc(F)c5c4)c3)CC2)C1` [Example 358, 4-(2-((R)-4-((2-chloropyridin-4-yl)methyl)-2-(2-isopropylphenyl)piperazin-1-yl)-7-azaspiro[3.5]nonan-7-yl)-2-((3-fluoro-1H-pyrrolo[2,3-b]pyridin-5-yl)oxy)-N-((6-((((1r,4r)-4-hydroxy-4-methylcyclohexyl)methyl)amino)-5-nitropyridin-3-yl)sulfonyl)benzamide]: the negative logarithm of the IC50 (pIC50) in the test with Toledo cells was 9.00; with RS4;11-BCL-2 G101V cells, 9.00; in the test on RS4;11-BCL-2 F104L cells, 8.70.
On to `CC(C)c1ccccc1[C@@H]1CN(Cc2ccc(F)cc2)CCN1C1CC2(CCN(c3ccc(C(=O)NS(=O)(=O)c4cnc(NC[C@H]5CC[C@](C)(O)CC5)c([N+](=O)[O-])c4)c(Oc4cnc5[nH]cc(F)c5c4)c3)CC2)C1` [Example 232, 2-((3-fluoro-1H-pyrrolo[2,3-b]pyridin-5-yl)oxy)-4-(2-((R)-4-(4-fluorobenzyl)-2-(2-isopropylphenyl)piperazin-1-yl)-7-azaspiro[3.5]nonan-7-yl)-N-((6-((((1r,4r)-4-hydroxy-4-methylcyclohexyl)methyl)amino)-5-nitropyridin-3-yl)sulfonyl)benzamide], for which the pIC50 in the test with Toledo cells, with RS4;11-BCL-2 G101V cells and in the test with RS4;11-BCL-2 F104L cells was 9.00 throughout.
